Experimental data reported in patent publication US20260306642A1, “STAT DEGRADERS AND USES THEREOF” (Recludix Pharma, Inc., priority 2023, published 2026).
pIC50: −log10 of the molar value. Where two headings read alike, the source gives them in different places.

Legend:
[1] = target: T1, pSTAT6 (Homo sapiens, UniProt P42226); test: MSD-pSTAT-PBMC Assay (pSTAT6, IL-4 stimulated); type: cell-based
T1 sequence (P42226 1-847): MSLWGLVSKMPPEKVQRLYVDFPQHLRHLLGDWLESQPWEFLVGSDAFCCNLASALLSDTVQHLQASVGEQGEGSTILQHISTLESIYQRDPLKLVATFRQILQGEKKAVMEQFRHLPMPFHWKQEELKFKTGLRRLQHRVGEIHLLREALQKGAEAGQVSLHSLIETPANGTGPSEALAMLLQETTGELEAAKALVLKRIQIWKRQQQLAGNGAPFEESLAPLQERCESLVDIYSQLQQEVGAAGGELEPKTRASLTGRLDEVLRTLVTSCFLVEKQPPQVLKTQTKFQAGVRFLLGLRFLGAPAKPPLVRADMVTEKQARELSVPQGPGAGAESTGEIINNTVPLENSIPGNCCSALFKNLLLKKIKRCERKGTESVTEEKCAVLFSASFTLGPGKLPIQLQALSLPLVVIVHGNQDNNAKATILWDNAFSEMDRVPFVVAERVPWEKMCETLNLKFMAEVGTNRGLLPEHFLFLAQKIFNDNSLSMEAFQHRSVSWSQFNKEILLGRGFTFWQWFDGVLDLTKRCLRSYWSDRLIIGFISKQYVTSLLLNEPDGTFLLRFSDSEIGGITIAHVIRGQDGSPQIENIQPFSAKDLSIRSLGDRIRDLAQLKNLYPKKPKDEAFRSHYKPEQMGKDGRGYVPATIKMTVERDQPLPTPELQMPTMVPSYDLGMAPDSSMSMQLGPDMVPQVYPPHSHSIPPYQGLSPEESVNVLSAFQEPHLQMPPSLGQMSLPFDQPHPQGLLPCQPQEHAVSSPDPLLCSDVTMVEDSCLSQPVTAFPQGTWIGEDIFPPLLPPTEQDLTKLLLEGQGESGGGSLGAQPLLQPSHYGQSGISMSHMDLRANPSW
Text: Cryopreserved Peripheral Blood Mononuclear Cells (PBMC) are from AllCells. Recombinant Human IL-4 and IL-6 are from Peprotech. Mouse monoclonal anti-STAT3 antibody, rabbit monoclonal anti-pY705-STAT3 antibody, rabbit monoclonal Anti-pY641-STAT6 antibody, and lysis buffer are from Cell Signaling Technology (CST). Mouse monoclonal anti-STAT6 antibody is from BioLegend. Assay plates, blocker, and anti-rabbit secondary antibody are from Meso Scale Discovery (MSD).
Cryopreserved PBMCs were thawed out and allowed to recover overnight in IMDM+10% heat-inactivated FBS prior to plating 50,000 (STAT3) or 25,000 (STAT6) cells per well in 96-well U-bottom tissue culture plates. Cells were treated with compound for 3 hrs, then stimulated with 10 ng/mL IL-6 (STAT3) or 1 ng/mL IL-4 (STAT6) for 10 min. Cells were then spun down and washed with ice-cold PBS prior to lysing the cell pellet with 1× lysis buffer (CST) with 1× HALT protease and phosphatase inhibitor cocktail (Thermo). Lysates were transferred to and incubated overnight at 4° C. with shaking in QuickPlex 96-well high bind assay plates (MSD) pre-coated overnight with 30 μL per well of […] mouse monoclonal anti-STAT3 antibody (STAT3) or 2 μg/mL mouse monoclonal anti-STAT6 antibody (STAT6) in 1× PBS, and pre-blocked for 1 hour with 3% Blocker-A (MSD). Captured protein in the assay plates were then washed and probed with 25 μL per well of […] rabbit monoclonal anti-pY705-STAT3 antibody (STAT3) or […] rabbit monoclonal Anti-pY641-STAT6 antibody (STAT6) in 1% Blocker-A for 1 hour at room temperature with shaking, then washed and probed with 25 ul per well of 1 ug/ml Sulfo-TAG Labeled Goat Anti-Rabbit Antibody (MSD) in 1% Blocker-A for 1 hour at room temperature with shaking. Assay plates were then washed and 150 μL of 1× Read Buffer-T (MSD) was added to each well prior to reading on an SQ120 MSD Plate Reader. Assay signal from each sample was subtracted by the signal from unstimulated control wells and normalized to DMSO control wells. IC50 values were calculated using Graph Pad Prism Dose-Response Nonlinear Regression with variable slope. For both pSTAT3 and pSTAT6 A=≤100 nM; B=>100-1000 nM; C=>1000-3000 nM; and D=>3 μM.

[2] = target: pSTAT3 (Homo sapiens, UniProt P40763); test: MSD-pSTAT-PBMC Assay (pSTAT3, IL-6 stimulated); type: cell-based; settings: compound 3 hrs, then 10 ng/mL IL-6 10 min, pY705-STAT3, read-out: pSTAT3 IC50
pSTAT3, sequence (P40763 whole entry): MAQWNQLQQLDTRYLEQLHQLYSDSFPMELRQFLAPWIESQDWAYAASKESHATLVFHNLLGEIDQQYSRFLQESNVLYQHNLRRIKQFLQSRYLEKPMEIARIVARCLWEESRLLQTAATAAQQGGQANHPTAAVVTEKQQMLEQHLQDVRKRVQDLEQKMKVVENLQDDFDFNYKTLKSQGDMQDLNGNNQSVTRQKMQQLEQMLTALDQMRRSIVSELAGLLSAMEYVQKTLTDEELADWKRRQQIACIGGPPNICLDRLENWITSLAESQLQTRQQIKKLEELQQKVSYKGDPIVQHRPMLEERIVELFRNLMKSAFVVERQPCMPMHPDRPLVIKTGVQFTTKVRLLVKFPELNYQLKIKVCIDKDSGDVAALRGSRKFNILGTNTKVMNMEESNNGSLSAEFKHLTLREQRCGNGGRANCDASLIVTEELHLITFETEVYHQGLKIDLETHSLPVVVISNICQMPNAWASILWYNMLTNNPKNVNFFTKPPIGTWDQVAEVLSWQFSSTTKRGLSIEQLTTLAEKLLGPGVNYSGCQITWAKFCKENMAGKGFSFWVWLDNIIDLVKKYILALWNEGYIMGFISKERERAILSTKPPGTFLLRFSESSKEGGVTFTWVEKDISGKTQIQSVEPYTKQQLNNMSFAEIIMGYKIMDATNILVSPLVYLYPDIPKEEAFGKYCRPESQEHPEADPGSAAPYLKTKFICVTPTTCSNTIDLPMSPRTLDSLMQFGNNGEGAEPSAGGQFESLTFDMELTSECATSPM
Summary of the method: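 Human PBMCs, recovered overnight, get compound for 3 hrs, then 10 min stimulation with 10 ng/mL IL-6 (pSTAT3; 50,000 cells) or 1 ng/mL IL-4 (pSTAT6; 25,000 cells). Lysates go to MSD sandwich immunoassay (pY705-STAT3 or pY641-STAT6 detection); signal minus unstimulated, normalized to DMSO, IC50 by variable-slope fit.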

[3] = target: T2, STAT3 (Homo sapiens, UniProt P40763); test: STAT3 Fluorescence Polarization (FP) Assay; type: binding
T2 construct: Recombinant STAT3 protein (STAT3(G127-I722))
T2 sequence (P40763 127-722): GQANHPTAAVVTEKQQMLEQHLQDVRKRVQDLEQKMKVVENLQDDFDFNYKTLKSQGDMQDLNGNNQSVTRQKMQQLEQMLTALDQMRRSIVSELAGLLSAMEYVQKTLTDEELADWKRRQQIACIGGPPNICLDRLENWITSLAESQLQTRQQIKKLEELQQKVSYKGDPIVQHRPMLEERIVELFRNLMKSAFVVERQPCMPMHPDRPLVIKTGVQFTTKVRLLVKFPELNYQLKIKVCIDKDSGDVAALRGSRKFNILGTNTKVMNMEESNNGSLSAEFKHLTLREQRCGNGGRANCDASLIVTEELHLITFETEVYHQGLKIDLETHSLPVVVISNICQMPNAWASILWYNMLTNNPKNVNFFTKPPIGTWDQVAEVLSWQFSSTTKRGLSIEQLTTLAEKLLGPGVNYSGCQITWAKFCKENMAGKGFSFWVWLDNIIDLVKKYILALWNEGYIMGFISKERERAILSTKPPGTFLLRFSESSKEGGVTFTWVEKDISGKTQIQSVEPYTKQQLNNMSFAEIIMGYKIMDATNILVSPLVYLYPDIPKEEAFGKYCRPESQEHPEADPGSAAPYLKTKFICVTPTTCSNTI
Protocol: An FP assay was developed to determine IC50 values for test substances.
Recombinant STAT3 protein (STAT3(G127-I722)) at 25 nM was combined with a fluorescently labeled, phosphotyrosine peptide probe (5-FAM-GpYLPQTV-NH2) at 2 nM in FP buffer (10 mM HEPES pH 7.4, 50 mM NaCl, 1 mM EDTA, 0.05% Tween 20, 2 mM DTT). 50 μL of STAT3-probe mixture was added to serial diluted compounds in black, 96-well plates (Greiner BioOne 655076) to a final concentration of 1% DMSO. Reaction components were mixed, and FP was measured after 45-minute incubation at room temperature using a Tecan Spark multimode plate reader. FP signal (mP) was plotted against the log concentration of the test substances and IC50 values were calculated by nonlinear regression analysis using GraphPad Prism software. For STAT3 FP assay, A=≤100 nM; B=>100-1000 nM; C=>1-10 μM; and D=>10 μM.

[4] = target: T3, STAT6 (Homo sapiens, UniProt P42226); test: STAT6 Fluorescence Polarization (FP) Assay; type: binding
T3 construct: Recombinant STAT6 protein (STAT6(W123-T658))
T3 sequence (P42226 123-658): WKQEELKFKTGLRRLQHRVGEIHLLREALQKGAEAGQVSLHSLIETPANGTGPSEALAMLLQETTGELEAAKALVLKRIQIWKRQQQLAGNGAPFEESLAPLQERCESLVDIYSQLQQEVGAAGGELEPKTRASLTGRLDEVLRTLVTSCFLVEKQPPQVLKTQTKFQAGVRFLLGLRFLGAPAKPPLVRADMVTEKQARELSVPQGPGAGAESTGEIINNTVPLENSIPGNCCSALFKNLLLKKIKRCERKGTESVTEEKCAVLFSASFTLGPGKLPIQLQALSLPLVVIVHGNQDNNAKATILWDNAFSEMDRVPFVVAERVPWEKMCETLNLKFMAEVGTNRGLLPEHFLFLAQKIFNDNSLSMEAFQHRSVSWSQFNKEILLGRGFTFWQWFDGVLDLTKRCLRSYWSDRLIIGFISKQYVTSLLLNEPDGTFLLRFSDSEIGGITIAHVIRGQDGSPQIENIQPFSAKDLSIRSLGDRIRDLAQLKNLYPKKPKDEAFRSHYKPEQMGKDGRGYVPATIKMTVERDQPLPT
Protocol: An FP assay was developed to determine IC50 values for test substances. Recombinant STAT6 protein (STAT6(W123-T658)) at 250 nM was combined with a fluorescently labeled, phosphotyrosine peptide probe (5-FAM-ApYKPFQDLI-NH2) at 2 nM in FP buffer (10 mM HEPES pH 7.4, 50 mM NaCl, 1 mM EDTA, 0.05% Tween 20, 2 mM DTT). 50 μL of STAT6-probe mixture was added to serial diluted compounds in black, 96-well plates (Greiner BioOne 655076) to a final concentration of 1% DMSO. Reaction components were mixed, and FP was measured after 45-minute incubation at room temperature using a Tecan Spark multimode plate reader. FP signal (mP) was plotted against the log concentration of the test substances and IC50 values were calculated by nonlinear regression analysis using GraphPad Prism software. For STAT6 FP assay, A=≤300 nM; B=>300-3000 nM; C=>3-30 μM; and D=>30 μM.

[5] = read-out: pSTAT6 IC50, compound 3 hrs, then 1 ng/mL IL-4 10 min, pY641-STAT6
[6] = compound 3 hrs, then 1 ng/mL IL-4 10 min, pY641-STAT6, read-out: pSTAT6 IC50

Row | pIC50 [1, 6] | Compound | pIC50 [1, 5] | other results
1 |  | CCCC(=O)SCCOP(=O)(OCCSC(=O)CCC)C(F)(F)c1ccc2sc(C(=O)NC3CCCCC4CCC(C(=O)N5CC(C#N)C(c6cccc(N7CCN(c8ccc9c(c8)[nH]c(=O)n9C8CCC(=O)NC8=O)CC7)c6)C5)N4C3=O)cc2c1 [Compound 23, S,S(((((2-(((3S,6S,10aS)-3-((rel-3S,4R)-3-cyano-4-(3-(4-(1-(2,6-dioxopiperidin-3-yl)-2-oxo-2,3-dihydro-1H-benzo[d]imidazol-5-yl)piperazin-1-yl)phenyl)pyrrolidine-1-carbonyl)-5-oxodecahydropyrrolo[1,2-a]azocin-6-yl)carbamoyl)benzo[b]thiophen-5-yl)difluoromethyl)phosphoryl)bis(oxy))bis(ethane-2,1-diyl)) dibutanethioate] | > 7.00 | 
2 | 6.00 to 7.00 | CCCC(=O)SCCOP(=O)(OCCSC(=O)CCC)C(F)(F)c1ccc2sc(C(=O)N[C@H]3CCCC[C@H]4CC[C@@H](C(=O)N5C[C@@H](c6ccn(CCOCCOCCOc7cccc8c7CN(C7CCC(=O)NC7=O)C8=O)c(=O)c6)CC56CC6)N4C3=O)cc2c1 (stereo partly drawn) [Compound 26, S,S((((2-(((3S,6S,10aS)-3-((6R)-6-(1-(2-(2-(2-((2-(2,6-dioxopiperidin-3-yl)-1-oxoisoindolin-4-yl)oxy)ethoxy)ethoxy)ethyl)-2-oxo-1,2-dihydropyridin-4-yl)-4-azaspiro[2.4]heptane-4-carbonyl)-5-oxodecahydropyrrolo[1,2-a]azocin-6-yl)carbamoyl)benzo[b]thiophen-5-yl)difluoromethyl)phosphoryl)bis(oxy))bis(ethane-2,1-diyl)) dibutanethioate] |  | 
3 | > 7.00 | CCCC(=O)SCCOP(=O)(OCCSC(=O)CCC)C(F)(F)c1ccc2sc(C(=O)N[C@H]3CCCC[C@H]4CC[C@@H](C(=O)N5C[C@@H](c6ccn(CCCCCCC#Cc7cccc8c7CN(C7CCC(=O)NC7=O)C8=O)c(=O)c6)CC56CC6)N4C3=O)cc2c1 (stereo partly drawn) [Compound 6, S,S((((2-(((3S,6S,10aS)-3-((6R)-6-(1-(8-(2-(2,6-dioxopiperidin-3-yl)-1-oxoisoindolin-4-yl)oct-7-yn-1-yl)-2-oxo-1,2-dihydropyridin-4-yl)-4-azaspiro[2.4]heptane-4-carbonyl)-5-oxodecahydropyrrolo[1,2-a]azocin-6-yl)carbamoyl)benzo[b]thiophen-5-yl)difluoromethyl)phosphoryl)bis(oxy))bis(ethane-2,1-diyl)) dibutanethioate] |  | 
4 |  | CCCC(=O)SCCOP(=O)(OCCSC(=O)CCC)C(F)(F)c1ccc2sc(C(=O)N[C@H]3CCCC[C@H]4CC[C@@H](C(=O)N5C[C@@H](c6ccn(C7CCN(c8ccc9c(c8)[nH]c(=O)n9C8CCC(=O)NC8=O)CC7)c(=O)c6)CC56CC6)N4C3=O)cc2c1 (stereo partly drawn) [Compound 25, S,S((((2-(((3S,6S,10aS)-3-((6R)-6-(1-(1-(1-(2,6-dioxopiperidin-3-yl)-2-oxo-2,3-dihydro-1H-benzo[d]imidazol-5-yl)piperidin-4-yl)-2-oxo-1,2-dihydropyridin-4-yl)-4-azaspiro[2.4]heptane-4-carbonyl)-5-oxodecahydropyrrolo[1,2-a]azocin-6-yl)carbamoyl)benzo[b]thiophen-5-yl)difluoromethyl)phosphoryl)bis(oxy))bis(ethane-2,1-diyl)) dibutanethioate] | 6.00 to 7.00 | 
5 |  | Cc1ncsc1-c1ccc(CNC(=O)[C@@H]2C[C@@H](O)CN2C(=O)[C@@H](NC(=O)C2CCN(c3ccncc3C3CN(C(=O)[C@@H]4CC[C@@H]5CCC[C@H](NC(=O)c6cc7cc(C(F)(F)P(=O)(O)O)ccc7s6)C(=O)N54)C3)CC2)C(C)(C)C)cc1 [Compound 8, (difluoro(2-(((3S,6S,9aS)-3-(3-(4-(4-(((S)-1-((2S,4R)-4-hydroxy-2-((4-(4-methylthiazol-5-yl)benzyl)carbamoyl)pyrrolidin-1-yl)-3,3-dimethyl-1-oxobutan-2-yl)carbamoyl)piperidin-1-yl)pyridin-3-yl)azetidine-1-carbonyl)-5-oxooctahydro-1H-pyrrolo[1,2-a]azepin-6-yl)carbamoyl)benzo[b]thiophen-5-yl)methyl)phosphonic acid] |  | pIC50 [2]: 5.52 to 6.00; pIC50 [3]: > 7.00; pIC50 [4]: 5.52 to 6.52
